Solubility data for 30 compounds are collected here from US9539252B2, “Piperazine-substituted benzothiophene derivatives as antipsychotic agents” (OTSUKA PHARMACEUTICAL CO., LTD., priority 2011, dated 2017).

The data set in a line: Solubility in oil (sesame oil, benzyl benzoate), visual observation. To be noted: oil or lipid, thermodynamic from solid.

A word on the solubility: it is the dissolved amount per volume that the medium holds. Read a high solubility as much dissolved substance. Turning to `COCCNC(=O)OCn1c(=O)ccc2ccc(OCCCCN3CCN(c4cccc5sccc45)CC3)cc21` [Example 109, N-(2-methoxyethyl)carbamic acid 7-[4-(4-benzo[b]thiophen-4-ylpiperazin-1-yl)butoxy]-2-oxo-2H-quinolin-1-ylmethyl ester], the solubility (benzyl benzoate) was > 100 mg/mL.
Still for that read-out and setting: in the case of `O=C(NCc1ccco1)OCn1c(=O)ccc2ccc(OCCCCN3CCN(c4cccc5sccc45)CC3)cc21` [Example 110] it was > 100 mg/mL; in that of `CN(Cc1ccccc1)C(=O)OCn1c(=O)ccc2ccc(OCCCCN3CCN(c4cccc5sccc45)CC3)cc21` [Example 111, N-benzyl-N-methylcarbamic acid 7-[4-(4-benzo[b]thiophen-4-ylpiperazin-1-yl)butoxy]-2-oxo-2H-quinolin-1-ylmethyl ester], > 100 mg/mL; in that of `C=CCNC(=O)OCn1c(=O)ccc2ccc(OCCCCN3CCN(c4cccc5sccc45)CC3)cc21` [Example 112, N-allylcarbamic acid 7-[4-(4-benzo[b]thiophen-4-ylpiperazin-1-yl)butoxy]-2-oxo-2H-quinolin-1-ylmethyl ester], > 100 mg/mL.
On to `O=C(NCc1ccccn1)OCn1c(=O)ccc2ccc(OCCCCN3CCN(c4cccc5sccc45)CC3)cc21` [Example 113], for which the solubility (benzyl benzoate) is > 100 mg/mL.
Turning to `C=CCCCCCCCCC(=O)OCN1C(=O)CCc2ccc(OCCCCN3CCN(c4cccc5sccc45)CC3)cc21` [Example 114, undec-10-enoic acid 7-[4-(4-benzo[b]thiophen-4-ylpiperazin-1-yl)butoxy]-2-oxo-3,4-dihydro-2H-quinolin-1-ylmethyl ester], the solubility (benzyl benzoate) is > 100 mg/mL.
The same measure, in the same setting: under `O=C(NCCc1ccccc1)OCn1c(=O)ccc2ccc(OCCCCN3CCN(c4cccc5sccc45)CC3)cc21` [Example 116, N-phenethylcarbamic acid 7-[4-(4-75 benzo[b]thiophen-4-ylpiperazin-1-yl)butoxy]-2-oxo-2H-quinolin-1-ylmethyl ester] stands > 100 mg/mL; under `CC(C)NC(=O)OCn1c(=O)ccc2ccc(OCCCCN3CCN(c4cccc5sccc45)CC3)cc21` [Example 117, N-isopropyl-carbamic acid 7-[4-(4-benzo[b]thiophen-4-ylpiperazin-1-yl)butoxy]-2-oxo-2H-quinolin-1-ylmethyl ester], > 100 mg/mL; under `O=C(OCn1c(=O)ccc2ccc(OCCCCN3CCN(c4cccc5sccc45)CC3)cc21)C1CCCCCC1` [Example 119, cycloheptanecarboxylic acid 7-[4-(4-benzo[b]thiophen-4-ylpiperazin-1-yl)butoxy]-2-oxo-2H-quinolin-1-ylmethyl ester], > 100 mg/mL.
On the same count and under the same terms, in the case of `O=C(OCN1C(=O)CCc2ccc(OCCCCN3CCN(c4cccc5sccc45)CC3)cc21)C1CCOCC1` [Example 120, tetrahydropyran-4-carboxylic acid 7-[4-(4-benzo[b]thiophen-4-ylpiperazin-1-yl)butoxy]-2-oxo-3,4-dihydro-2H-quinolin-1-ylmethyl ester] it was > 100 mg/mL.
The same measure, in the same setting: under `CC(C)(C)OC(=O)CC(=O)OCN1C(=O)CCc2ccc(OCCCCN3CCN(c4cccc5sccc45)CC3)cc21` [Example 121, malonic acid 7-[4-(4-benzo[b]thiophen-4-ylpiperazin-1-yl)butoxy]-2-oxo-3,4-dihydro-2H-quinolin-1-ylmethyl ester tert-butyl ester] stands > 100 mg/mL.
For the compound `O=C(OCn1c(=O)ccc2ccc(OCCCCN3CCN(c4cccc5sccc45)CC3)cc21)N1CCC(F)(F)CC1` [Example 123, 4,4-difluoropiperidine-1-carboxylic acid 7-[4-(4-benzo[b]thiophen-4-ylpiperazin-1-yl)butoxy]-2-oxo-2H-quinolin-1-ylmethyl ester], the solubility (benzyl benzoate) was > 100 mg/mL.
In the case of `O=C(CCC(F)(F)F)OCN1C(=O)CCc2ccc(OCCCCN3CCN(c4cccc5sccc45)CC3)cc21` [Example 124, 4,4,4-trifluorobutyric acid 7-[4-(4-benzo[b]thiophen-4-ylpiperazin-1-yl)butoxy]-2-oxo-3,4-dihydro-2H-quinolin-1-ylmethyl ester], the solubility (benzyl benzoate) was > 100 mg/mL.
On the same count and under the same terms, under `CN(Cc1ccco1)C(=O)OCn1c(=O)ccc2ccc(OCCCCN3CCN(c4cccc5sccc45)CC3)cc21` [Example 125, N-furan-2-ylmethyl-N-methylcarbamic acid 7-[4-(4-benzo[b]thiophen-4-ylpiperazin-1-yl)butoxy]-2-oxo-2H-quinolin-1-ylmethyl ester] stands > 100 mg/mL; under `CC(C)CCC(=O)OCn1c(=O)ccc2ccc(OCCCCN3CCN(c4cccc5sccc45)CC3)cc21` [Example 126, 4-methylpentanoic acid 7-[4-(4-benzo[b]thiophen-4-ylpiperazin-1-yl)butoxy]-2-oxo-2H-quinolin-1-ylmethyl ester], > 100 mg/mL.
On the same count and under the same terms, under `O=C(OCN1C(=O)CCc2ccc(OCCCCN3CCN(c4cccc5sccc45)CC3)cc21)C1CCC1` [Example 127, cyclobutanecarboxylic acid 7-[4-(4-benzo[b]thiophen-4-ylpiperazin-1-yl)butoxy]-2-oxo-3,4-dihydro-2H-quinolin-1-ylmethyl ester] stands > 100 mg/mL; under `O=C(OCN1C(=O)CCc2ccc(OCCCCN3CCN(c4cccc5sccc45)CC3)cc21)c1ccc2occc2c1` [Example 128, benzofuran-5-carboxylic acid 7-[4-(4-benzo[b]thiophen-4-ylpiperazin-1-yl)butoxy]-2-oxo-3,4-dihydro-2H-quinolin-1-ylmethyl ester], > 100 mg/mL.
Same read-out and setting: in the case of `CONC(=O)OCn1c(=O)ccc2ccc(OCCCCN3CCN(c4cccc5sccc45)CC3)cc21` [Example 129, N-methoxycarbamic acid (7-{4-[4-(benzo[b]thiophen-4-yl)piperazin-1-yl]butoxy}-2-oxo-2H-quinolin-1-yl)methyl] it was > 100 mg/mL; in that of `O=C(OCn1c(=O)ccc2ccc(OCCCCN3CCN(c4cccc5sccc45)CC3)cc21)C1CCOCC1` [Example 130, tetrahydropyran-4-carboxylic acid 7-[4-(4-benzo[b]thiophen-4-ylpiperazin-1-yl)butoxy]-2-oxo-2H-quinolin-1-ylmethyl ester], > 100 mg/mL.
Consider `O=C(OCN1C(=O)CCc2ccc(OCCCCN3CCN(c4cccc5sccc45)CC3)cc21)c1cccs1` [Example 131, thiophene-2-carboxylic acid 7-[4-(4-benzo[b]thiophen-4-ylpiperazin-1-yl)butoxy]-2-oxo-3,4-dihydro-2H-quinolin-1-ylmethyl ester], for which the solubility (benzyl benzoate) was > 100 mg/mL.
The same measure, in the same setting: under `O=C(OCN1C(=O)CCc2ccc(OCCCCN3CCN(c4cccc5sccc45)CC3)cc21)c1cccnc1` [Example 132, nicotinic acid 7-[4-(4-benzo[b]thiophen-4-ylpiperazin-1-yl)butoxy]-2-oxo-3,4-dihydro-2H-quinolin-1-ylmethyl ester] stands > 100 mg/mL.
On to `CCCCCCCCCCCCOC(=O)OCn1c(=O)ccc2ccc(OCCCCN3CCN(c4cccc5sccc45)CC3)cc21` [Example 134, carbonic acid 7-[4-(4-benzo[b]thiophen-4-ylpiperazin-1-yl)butoxy]-2-oxo-2H-quinolin-1-ylmethyl ester dodecyl ester], for which the solubility by setting is: (benzyl benzoate) > 100 mg/mL; (sesame oil) > 100 mg/mL.
With `CCCCCCCCCCOC(=O)OCn1c(=O)ccc2ccc(OCCCCN3CCN(c4cccc5sccc45)CC3)cc21` [Example 135, carbonic acid 7-[4-(4-benzo[b]thiophen-4-ylpiperazin-1-yl)butoxy]-2-oxo-2H-quinolin-1-ylmethyl ester decyl ester], the solubility (benzyl benzoate) was > 100 mg/mL and the solubility (sesame oil) is > 100 mg/mL.
Turning to `O=C(OCn1c(=O)ccc2ccc(OCCCCN3CCN(c4cccc5sccc45)CC3)cc21)C1CCC1` [Example 136, cyclobutanecarboxylic acid 7-[4-(4-benzo[b]thiophen-4-ylpiperazin-1-yl)butoxy]-2-oxo-2H-quinolin-1-ylmethyl ester], where the note is “benzyl benzoate”, the solubility is > 100 mg/mL.
The same measure, in the same setting: under `O=C(OCn1c(=O)ccc2ccc(OCCCCN3CCN(c4cccc5sccc45)CC3)cc21)c1ccc2occc2c1` [Example 137, benzofuran-5-carboxylic acid 7-[4-(4-benzo[b]thiophen-4-ylpiperazin-1-yl)butoxy]-2-oxo-2H-quinolin-1-ylmethyl ester] stands > 100 mg/mL; under `O=C(NCCC(F)(F)F)OCn1c(=O)ccc2ccc(OCCCCN3CCN(c4cccc5sccc45)CC3)cc21` [Example 139, N-(3,3,3-trifluoropropyl)carbamic acid 7-[4-(4-benzo[b]thiophen-4-ylpiperazin-1-yl)butoxy]-2-oxo-2H-quinolin-1-ylmethyl ester], > 100 mg/mL; under `O=C(OC/C=C/c1ccccc1)OCn1c(=O)ccc2ccc(OCCCCN3CCN(c4cccc5sccc45)CC3)cc21` [Example 140, carbonic acid 7-[4-(4-benzo[b]thiophen-4-ylpiperazin-1-yl)butoxy]-2-oxo-2H-quinolin-1-ylmethyl ester (E)-3-phenyl-allyl ester], > 100 mg/mL.
On the same count and under the same terms, under `O=C(OCn1c(=O)ccc2ccc(OCCCCN3CCN(c4cccc5sccc45)CC3)cc21)c1cccs1` [Example 141, thiophene-2-carboxylic acid 7-[4-(4-benzo[b]thiophen-4-ylpiperazin-1-yl)butoxy]-2-oxo-2H-quinolin-1-ylmethyl ester] stands > 100 mg/mL.
Turning to `CCCCCCCCCCOC(=O)OCN1C(=O)CCc2ccc(OCCCCN3CCN(c4cccc5sccc45)CC3)cc21` [Example 142, carbonic acid 7-[4-(4-benzo[b]thiophen-4-ylpiperazin-1-yl)butoxy]-2-oxo-3,4-dihydro-2H-quinolin-1-ylmethyl ester decyl ester], the solubility is > 100 mg/mL (benzyl benzoate) and > 100 mg/mL (sesame oil).
For the compound `CCCCCCCCCCCCCCCCOC(=O)OCN1C(=O)CCc2ccc(OCCCCN3CCN(c4cccc5sccc45)CC3)cc21` [Example 144, carbonic acid 7-[4-(4-benzo[b]thiophen-4-ylpiperazin-1-yl)butoxy]-2-oxo-3,4-dihydro-2H-quinolin-1-ylmethyl ester hexadecyl ester], the solubility (benzyl benzoate) is > 100 mg/mL and the solubility (sesame oil) was > 100 mg/mL.
